The results in this text go back to ChEMBL document CHEMBL1201862, “PubChem BioAssay data set” (2004).

Each structure is given as a SMILES string.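 Method: 48-hour compound exposure of cells in 96-well plates, five concentrations, linear interpolation of endpoints. Abbreviation: GI50, concentration required for 50% inhibition of growth.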 The source made the active and inactive calls. Cut-off read from the data, not from the text of the source: active = GI50 up to about 1.1 µM and inactive = higher. Where a SMILES comes first, the peptide text is derived from it. The star is where a group is joined. Boc = CC(C)(C)OC(=O)*

Some test systems named below: M14; 786-0; OVCAR-8; UACC-62; SF-539; SK-MEL-2; Malme-3M; SF-295; MDA-MB-435; NCI/ADR-RES; EKVX; RXF 393; CCRF-CEM; SR; OVCAR-5; DU-145; TK-10; BT-549; SN12C.
Holding throughout (assay): NCI anticancer screen, dose series, 48 h

In the case of `CN(C)CCNc1ccc2c(=O)n(CCN(C)C)c(=O)n3c4ccccc4c(=O)c1c23`, the GI50 in the assay with M14 is 0.0836 µM (active); in the assay with 786-0, < 0.0198 µM (active); in the assay on OVCAR-8, 0.0711 µM (active); in the assay on UACC-62, 0.0614 µM (active); in the assay with SF-539, 0.0321 µM (active); with SK-MEL-2 it was 0.399 µM (active). Further, the GI50 in the assay on Malme-3M was 0.18 µM (active); with SF-295 it was < 0.0243 µM (active); in the assay with MDA-MB-435, 0.145 µM (active); in the assay on NCI/ADR-RES, 0.14 µM (active); in the assay on EKVX, 0.174 µM (active); in the assay on RXF 393, 0.109 µM (active). For the same compound, the GI50 in the assay on CCRF-CEM was < 0.01 µM (active); in the assay with SR, < 0.01 µM (active); with OVCAR-5 it was 0.318 µM (active); in the assay on DU-145, 0.0197 µM (active); with TK-10, 0.392 µM (active); with BT-549 it was 0.238 µM (active). Moreover, the GI50 with SN12C was 0.0198 µM (active).

With `N#CCc1nc(Cc2ccccc2)n[nH]1`, the GI50 with M14, in the assay on 786-0, in the assay on OVCAR-8, in the assay with UACC-62, with SF-539 and in the assay on SK-MEL-2 was > 100 µM (inactive) throughout. Besides, the GI50 with Malme-3M, with SF-295, in the assay on MDA-MB-435, with NCI/ADR-RES, in the assay with EKVX and in the assay with RXF 393 was > 100 µM (inactive) each time. Further, the GI50 in the assay on CCRF-CEM, in the assay with SR, with OVCAR-5, in the assay with DU-145, in the assay with TK-10 and in the assay with BT-549 was > 100 µM (inactive) each time. The GI50 in the assay on SN12C was > 100 µM (inactive).

In the case of `COC(=O)c1c(O)ccc2c1c1c(n2Cc2cc(OC)cc(OC)c2)C(=O)c2ccccc2C1`, the GI50 in the assay with M14 was 37.8 µM (inactive); in the assay on 786-0 it was 92 µM (inactive); in the assay on OVCAR-8, 43.3 µM (inactive); with UACC-62, 49.2 µM (inactive); in the assay with SF-539 it was 50.6 µM (inactive); in the assay on SK-MEL-2, 50.6 µM (inactive). The GI50 in the assay on Malme-3M is 68.5 µM (inactive); in the assay on SF-295, 52.6 µM (inactive); in the assay with MDA-MB-435 it was 10.9 µM (inactive); with NCI/ADR-RES it was 16.7 µM (inactive); in the assay on RXF 393, 19.7 µM (inactive); in the assay with CCRF-CEM it was 18.2 µM (inactive). Also, the GI50 in the assay with SR was 13 µM (inactive); in the assay with OVCAR-5, 18.4 µM (inactive); with DU-145, 53.3 µM (inactive); in the assay with TK-10 it was 52 µM (inactive); in the assay with BT-549, 55.5 µM (inactive); in the assay on SN12C, 29.5 µM (inactive).

Consider `c1ccc2c3c([nH]c2c1)C1c2[nH]c4ccccc4c2CCN1CC3`, for which the GI50 in the assay on 786-0 is 12.6 µM (inactive); with OVCAR-8 it was 8.18 µM (inactive); in the assay with UACC-62, 16.7 µM (inactive); in the assay on SF-539 it was 17.5 µM (inactive); in the assay with SK-MEL-2, 26.8 µM (inactive); in the assay with Malme-3M it was 15.1 µM (inactive). Moreover, the GI50 in the assay with SF-295 was 16 µM (inactive); in the assay with MDA-MB-435, 15.2 µM (inactive); with NCI/ADR-RES it was 2.27 µM (inactive); in the assay on EKVX, 6.12 µM (inactive); with RXF 393 it was 13.6 µM (inactive); in the assay on CCRF-CEM it was 13.5 µM (inactive). The GI50 in the assay on SR was 9.75 µM (inactive); in the assay on OVCAR-5, 19.5 µM (inactive); with DU-145, 13.2 µM (inactive); in the assay with TK-10 it was 11.2 µM (inactive); in the assay on BT-549, 16.1 µM (inactive); in the assay with SN12C, 15.2 µM (inactive).

On to `Cc1c(C#N)c2nnn(-c3ccc(Cl)cc3)c(=O)n2c1-c1ccccc1`, for which the GI50 with M14 is 0.0608 µM (active); with 786-0, 0.12 µM (active); in the assay with OVCAR-8, 0.163 µM (active); in the assay on UACC-62 it was 0.149 µM (active); in the assay on SF-539, 0.0492 µM (active); in the assay with SK-MEL-2, 0.0746 µM (active). The GI50 with Malme-3M was 0.0468 µM (active); in the assay with SF-295, 0.0531 µM (active); in the assay with MDA-MB-435, < 0.0188 µM (active); in the assay on NCI/ADR-RES, 0.0693 µM (active); in the assay on EKVX, 0.237 µM (active); with RXF 393 it was 0.0764 µM (active). In addition, the GI50 in the assay on CCRF-CEM is 0.0991 µM (active); in the assay with SR it was < 0.0212 µM (active); in the assay on OVCAR-5, 0.247 µM (active); in the assay on DU-145 it was 0.0895 µM (active); in the assay on TK-10, 0.476 µM (active); in the assay on BT-549 it was 0.37 µM (active). For the same compound, in the assay with SN12C, the GI50 was 0.107 µM (active).

`CCN(C(=O)N[C@@H](C)C(=O)N[C@@H](Cc1ccccc1)C(=O)OC)c1ccccc1`: the GI50 in the assay on M14 was 34.4 µM (inactive); in the assay with 786-0, 39 µM (inactive); with OVCAR-8, 51.3 µM (inactive); in the assay on UACC-62, 31.6 µM (inactive); with SF-539 it was 34.5 µM (inactive); in the assay on SK-MEL-2 it was 28.6 µM (inactive). Besides, the GI50 with Malme-3M is 34.4 µM (inactive); with SF-295, 79.6 µM (inactive); in the assay on MDA-MB-435, > 100 µM (inactive); in the assay with NCI/ADR-RES it was > 100 µM (inactive); in the assay with EKVX, > 100 µM (inactive); with RXF 393, > 100 µM (inactive). Moreover, the GI50 in the assay on CCRF-CEM was > 100 µM (inactive); in the assay with SR, 26 µM (inactive); in the assay on OVCAR-5, > 100 µM (inactive); with DU-145, 46 µM (inactive); in the assay with TK-10, > 100 µM (inactive); in the assay with BT-549, > 100 µM (inactive). The GI50 in the assay with SN12C is 23 µM (inactive).

Consider `CCN(CC)C(=S)SNCCc1ccc(S(N)(=O)=O)cc1`, for which the GI50 with M14 is 10.9 µM (inactive); with 786-0 it was 14.7 µM (inactive); in the assay with OVCAR-8, 12.6 µM (inactive); with UACC-62 it was 16.9 µM (inactive); with SF-539, 14.1 µM (inactive); in the assay with SK-MEL-2, 33.6 µM (inactive). Moreover, the GI50 in the assay on Malme-3M is 12 µM (inactive); in the assay on SF-295 it was 16.7 µM (inactive); in the assay on MDA-MB-435, 14.7 µM (inactive); in the assay with NCI/ADR-RES it was 17.4 µM (inactive); in the assay with EKVX, 20 µM (inactive); in the assay on RXF 393 it was 7.57 µM (inactive). The GI50 in the assay on CCRF-CEM was 0.169 µM (active); in the assay with SR it was < 0.01 µM (active); with OVCAR-5, 15.6 µM (inactive); with DU-145, 14 µM (inactive); with TK-10, 18.6 µM (inactive); in the assay with BT-549, 16 µM (inactive). For the same compound, the GI50 in the assay with SN12C was 14.2 µM (inactive).

In the case of `CC(NC(=O)C1CCCN1C(=O)CNC(=O)OC(C)(C)C)C(=O)O` (stereo not drawn) (Boc-Gly-Pro-Ala-OH; configuration not given here), the GI50 in the assay on M14, in the assay with 786-0, in the assay with OVCAR-8, with UACC-62, in the assay with SF-539 and with SK-MEL-2 was > 100 µM (inactive) in each case. For the same compound, the GI50 in the assay with Malme-3M, with SF-295, with MDA-MB-435, with NCI/ADR-RES, in the assay on EKVX and with RXF 393 was > 100 µM (inactive) each time. In addition, the GI50 in the assay on SR, with OVCAR-5, in the assay with DU-145, in the assay on TK-10, with BT-549 and in the assay on SN12C was > 100 µM (inactive) in each case.

In the case of `C[N+](C)(N)Cc1csc(-c2ccc(Cl)cc2)n1`, the GI50 in the assay with M14, in the assay with 786-0, in the assay on OVCAR-8, in the assay with UACC-62, in the assay on SF-539 and with SK-MEL-2 was > 100 µM (inactive) in each case. Besides, the GI50 is 39.4 µM (inactive) in the assay on Malme-3M; 67.1 µM (inactive) with SF-295; > 100 µM (inactive) in the assay on MDA-MB-435; > 100 µM (inactive) in the assay with NCI/ADR-RES; 64.3 µM (inactive) with EKVX; > 100 µM (inactive) in the assay with RXF 393. The GI50 with SR was > 100 µM (inactive); with OVCAR-5 it was > 100 µM (inactive); in the assay with DU-145 it was > 100 µM (inactive); with TK-10, > 100 µM (inactive); in the assay on BT-549 it was 34 µM (inactive); with SN12C it was 34.8 µM (inactive).

Regarding `CC(=O)OCC1OC(N2C(C)=C(C(C)=O)C(c3ccc(Cl)cc3)C(C#N)=C2S)C(OC(C)=O)C(OC(C)=O)C1OC(C)=O` (stereo not drawn), the GI50 in the assay on M14 is 56.8 µM (inactive); in the assay with 786-0, 35.6 µM (inactive); with OVCAR-8 it was 52.5 µM (inactive); in the assay on UACC-62, 19.9 µM (inactive); in the assay with SF-539, 44.1 µM (inactive); in the assay with SK-MEL-2 it was 37.6 µM (inactive). The GI50 in the assay with Malme-3M is 48.4 µM (inactive); in the assay on SF-295, 66.2 µM (inactive); in the assay on MDA-MB-435, 36.8 µM (inactive); in the assay on NCI/ADR-RES it was 8.71 µM (inactive); in the assay on RXF 393, 52.8 µM (inactive); with CCRF-CEM, 44.1 µM (inactive). Further, the GI50 is 28.2 µM (inactive) in the assay with SR; > 100 µM (inactive) in the assay on OVCAR-5; 68.5 µM (inactive) in the assay on DU-145; 76.9 µM (inactive) with TK-10; 62.4 µM (inactive) in the assay with BT-549; 85.9 µM (inactive) with SN12C.

For `O=S(=O)(SC1=NCCN1)c1cccc2ccccc12`, the GI50 is 27.6 µM (inactive) in the assay on M14; 25.4 µM (inactive) with 786-0; 28.8 µM (inactive) in the assay on OVCAR-8; 34.4 µM (inactive) in the assay on UACC-62; 20.3 µM (inactive) with SF-539; 23.7 µM (inactive) with SK-MEL-2. Besides, the GI50 with Malme-3M is 32 µM (inactive); with SF-295, 24.1 µM (inactive); in the assay with MDA-MB-435, 29.6 µM (inactive); with NCI/ADR-RES it was 26.5 µM (inactive); with EKVX, 30.1 µM (inactive); in the assay with RXF 393 it was 23.9 µM (inactive). The GI50 in the assay on CCRF-CEM is 21.8 µM (inactive); in the assay on SR, > 10 µM (inactive); in the assay with OVCAR-5, 22.1 µM (inactive); in the assay on DU-145, 29.6 µM (inactive); with BT-549 it was 22.9 µM (inactive); in the assay on SN12C, 23 µM (inactive).
